These results are taken from patent publication US11440932B2, “Surfactant compounds-clips for extraction and stabilization in solution of membrane proteins” (CENTRE NATIONAL DE LA RECHERCHE SCIENTIFIQUE, priority 2017, dated 2022).

In data set [1] the target is T1, AcrB (Escherichia coli, UniProt P31224).
T1 construct: made in house; host or cells: E. coli C41(DE3)
As to the kind of experiment: Extraction of AcrB from membranes (SDS-PAGE of supernatant). On the set-up: species or system bacterial; same expression system (E. coli C41DE3). To be noted: detergent 10 g/l unless indicated otherwise; 2 h at 4° C. Put shortly: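 E. coli C41(DE3) membranes overexpressing BmrA (~25% of protein) or AcrB (~20%), at 2 g/l protein in 20 mM Tris-HCl pH 8.0, 100 mM NaCl, 15% glycerol with protease inhibitors, treated with detergent at 10 g/l unless stated otherwise for 2 h at 4° C. After 100 000×g centrifugation, 20 μg supernatant protein run on 10% SDS-PAGE, Coomassie-stained.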

A short description of data set [2]: Diameter of micelles by dynamic light scattering (DLS). The class given is physicochemical. To be noted: for Ø, nm: estimated micelle diameter by DLS, 30 mM tris-HCl, pH 8.0. As for the experimental part:
FIG. 5 depicts the dynamic light scattering (DLS) of clips, in intensity (%, column A on the left) and in number (%, column B on the right), as a function of the […] (nm). The estimated diameters are indicated on each panel (column A). Columns A and B, from top to bottom: compound 3.7c (10 mM, 5×CMC), compound 3.7d (10 mM, 5×CMC), compound 3.7e (2 mM, […]), compound 3.7f (10 mM, 500×CMC), compound 3.7h (1 mM, 100×CMC), compound 3.7j (2 mM, 100×CMC), compound 3.9a (1 mM, 50×CMC).
Another physicochemical parameter of the micelles of detergents is their diameter, assuming that they are spherical. This dimension is obtained by the light scattering (DLS) technique.
Procedure. The molecules of the invention tested were prepared in a range of concentrations extending from 0.1 to 1000×CMC in 30 mM tris-HCl, pH 8.0 and neutralized at this pH. The solutions are filtered on 0.22 μm. The measurement is carried out on 100 μl, in triplicate on a Zetasizer Nano-S from Malvern Instruments.

In data set [3] the target is T2, BmrA (Bacillus subtilis, UniProt O06967).
T2 construct: His tag; made in house; host or cells: E. coli C41(DE3)
T2 sequence (O06967 whole entry): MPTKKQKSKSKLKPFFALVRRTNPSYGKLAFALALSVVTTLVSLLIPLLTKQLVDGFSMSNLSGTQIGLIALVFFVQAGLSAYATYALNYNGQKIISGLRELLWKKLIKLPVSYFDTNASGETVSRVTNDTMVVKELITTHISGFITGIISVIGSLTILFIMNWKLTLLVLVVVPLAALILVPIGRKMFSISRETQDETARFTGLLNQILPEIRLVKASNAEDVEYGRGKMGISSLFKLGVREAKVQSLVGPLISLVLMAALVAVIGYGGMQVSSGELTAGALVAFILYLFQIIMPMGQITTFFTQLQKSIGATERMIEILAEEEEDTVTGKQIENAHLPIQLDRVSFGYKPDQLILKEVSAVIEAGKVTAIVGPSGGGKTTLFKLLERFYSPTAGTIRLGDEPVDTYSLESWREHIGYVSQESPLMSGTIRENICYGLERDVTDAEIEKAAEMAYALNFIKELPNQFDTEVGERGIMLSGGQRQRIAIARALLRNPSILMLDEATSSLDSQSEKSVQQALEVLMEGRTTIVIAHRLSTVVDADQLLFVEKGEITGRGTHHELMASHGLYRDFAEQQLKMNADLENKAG
As to the kind of experiment: Size exclusion chromatography of BmrA after detergent exchange. As for the experimental part: The membrane fraction was extracted and purified in DDM by Ni-NTA metal affinity and Superdex 200 size exclusion, before being reloaded on Ni-NTA in order to exchange the DDM either with itself or with the compound 3.7c. Each pool was subsequently loaded onto a 3 ml Superdex S200 5/150 size exclusion column and eluted in the presence of 2 CMC of the same detergent, as indicated. The proteins are detected by absorbance at 280 nm.
The capacity of the compounds of the invention to maintain the membrane proteins in a native state was exemplified with the compound 3.7c of the invention, monitored by size exclusion chromatography and compared to the reference detergent DDM.
Procedure: BmrA was extracted in DDM and purified by Ni-NTA affinity chromatography as described in example 13, then loaded onto a Superdex 200 10/300 size exclusion column and eluted with 50 mM Hepes-HCl pH 8.0, 100 mM NaCl, 0.4 mM DDM (2×CMC). The fractions containing BmrA were pooled and separated into several aliquots (˜100 μg) kept at 4° C. One aliquot was subsequently reloaded onto an affinity column containing 1 ml of resin. The DDM was then exchanged against 10 volumes of Hepes-NaCl buffer containing either 2 CMC of DDM (control experiment) or 2 CMC of compound 3.7c (2 mM). BmrA was subsequently eluted in the respective buffers with 100 mM of imidazole added. The fractions containing the proteins were combined and concentrated on 50 kDa amicon (regenerated cellulose) to 50 μl, and were then deposited on a 3 ml Superdex 200 5/150 size exclusion column, equilibrated in 50 mM Hepes-HCl pH 8.0, 100 mM NaCl, and 2 CMC of DDM (0.4 mM) or 3.7c (2 mM). The elution was subsequently carried out at 0.3 ml/min in the respective buffers and the BmrA detected at 280 nm.

T1 sequence (P31224 whole entry): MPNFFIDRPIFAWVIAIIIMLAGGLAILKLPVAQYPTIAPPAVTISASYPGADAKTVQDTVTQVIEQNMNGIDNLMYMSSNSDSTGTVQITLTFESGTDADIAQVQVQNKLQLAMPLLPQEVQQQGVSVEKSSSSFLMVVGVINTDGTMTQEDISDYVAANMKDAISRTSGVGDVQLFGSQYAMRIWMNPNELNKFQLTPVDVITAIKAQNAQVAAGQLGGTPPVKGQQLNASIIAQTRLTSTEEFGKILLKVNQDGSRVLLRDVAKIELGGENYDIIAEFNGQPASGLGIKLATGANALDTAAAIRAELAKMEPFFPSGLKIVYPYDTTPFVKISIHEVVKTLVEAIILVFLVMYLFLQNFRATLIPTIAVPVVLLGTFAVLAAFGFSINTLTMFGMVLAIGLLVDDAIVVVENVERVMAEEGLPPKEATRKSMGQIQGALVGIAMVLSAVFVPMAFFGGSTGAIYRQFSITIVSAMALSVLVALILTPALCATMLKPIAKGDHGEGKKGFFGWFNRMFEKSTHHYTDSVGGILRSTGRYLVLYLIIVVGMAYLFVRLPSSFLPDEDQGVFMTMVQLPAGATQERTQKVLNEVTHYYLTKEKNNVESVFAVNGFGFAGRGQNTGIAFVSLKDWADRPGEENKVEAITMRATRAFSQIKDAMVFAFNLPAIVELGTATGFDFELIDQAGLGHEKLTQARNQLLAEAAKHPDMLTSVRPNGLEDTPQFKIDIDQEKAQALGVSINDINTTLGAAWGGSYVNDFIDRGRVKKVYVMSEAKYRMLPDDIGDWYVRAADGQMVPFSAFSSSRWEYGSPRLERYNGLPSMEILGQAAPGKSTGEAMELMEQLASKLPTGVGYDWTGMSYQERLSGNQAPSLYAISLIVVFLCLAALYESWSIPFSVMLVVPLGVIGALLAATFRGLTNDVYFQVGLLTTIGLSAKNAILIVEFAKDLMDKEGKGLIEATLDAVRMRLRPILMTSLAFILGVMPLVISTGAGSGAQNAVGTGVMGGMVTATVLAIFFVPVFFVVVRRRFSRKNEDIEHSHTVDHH

For `CCCCCCCCCCCC(=O)N[C@@H](COCc1cn(CCO[C@@H]2OC(CO)[C@@H](O)C(O)C2O)nn1)C(=O)N[C@H](CCC(=O)O)C(=O)O` (some centres unmarked) [Compound 3.7b], the “extraction of AcrB” value in data set [1] is reported as “do not extract”.
`CCCCCCCCCCCCCC(=O)N[C@@H](COCc1cn(CCO[C@@H]2OC(CO)[C@@H](O)C(O)C2O)nn1)C(=O)N[C@H](CCC(=O)O)C(=O)O` (some centres unmarked) [Compound 3.7c]: in data set [2], the “Ø, nm” value is on record as 3.8 nm. Also, in data set [1], the “extraction of AcrB” value is “extracting”. The “elution volume of BmrA” value in data set [3] (Superdex 200 5/150, 2 CMC of detergent, 0.3 ml/min) was ~1.6 mL. In addition, the “oligomerization state of BmrA” value in data set [3] (after exchange of DDM, 2 CMC (2 mM)) is given as “conserves the native oligomerization state”.
`CCCCCCCCCCCCCC(=O)N[C@@H](COCc1cn(CCO[C@@H]2OC(CO)[C@@H](O[C@H]3OC(CO)[C@@H](O)C(O)C3O)C(O)C2O)nn1)C(=O)N[C@H](CCC(=O)O)C(=O)O` (some centres unmarked) [Compound 3.7e]: the “Ø, nm” value in data set [2] was 3.5 nm. In addition, the “extraction of AcrB” value in data set [1] is “extracting”.
Regarding `CCCCCCCCCCCCC(CCCCCCCCCCCC)C(=O)N[C@@H](COCc1cn(CCO[C@@H]2OC(CO)[C@@H](O)C(O)C2O)nn1)C(=O)N[C@H](CCC(=O)O)C(=O)O` (some centres unmarked) [Compound 3.7j], the “estimated diameter” value in data set [2] (DLS) is reported as ~60 nm. Further, in data set [2], the “Ø, nm” value is given as 60 nm. Further, the “extraction of AcrB” value in data set [1] is recorded as “extracting”.
For `CCCCCCCCCCCCCC(=O)N[C@@H](COCc1cn(CCO[C@@H]2OC(CO)[C@@H](O)C(O)C2O)nn1)C(=O)N[C@@H](CCC(=O)O)C(=O)NCC(=O)O` (some centres unmarked) [Compound 3.7l], in data set [1], the “extraction of AcrB” value is given as “extracting”.
